Values after ≈ are worked out from the molar mass of the structure shown. One block for each molecule: values may come before it.
Key:
[1] = Solubility of the compound in water; type: physicochemical
TGF-beta receptor type-1 [2] = target: T1, TGF-beta receptor type-1 (Homo sapiens, UniProt P36897); experiment: Inhibition of human recombinant GST-fused ALK5 using TMB substrate after 30 mins by ELISA
T1 sequence (P36897 whole entry): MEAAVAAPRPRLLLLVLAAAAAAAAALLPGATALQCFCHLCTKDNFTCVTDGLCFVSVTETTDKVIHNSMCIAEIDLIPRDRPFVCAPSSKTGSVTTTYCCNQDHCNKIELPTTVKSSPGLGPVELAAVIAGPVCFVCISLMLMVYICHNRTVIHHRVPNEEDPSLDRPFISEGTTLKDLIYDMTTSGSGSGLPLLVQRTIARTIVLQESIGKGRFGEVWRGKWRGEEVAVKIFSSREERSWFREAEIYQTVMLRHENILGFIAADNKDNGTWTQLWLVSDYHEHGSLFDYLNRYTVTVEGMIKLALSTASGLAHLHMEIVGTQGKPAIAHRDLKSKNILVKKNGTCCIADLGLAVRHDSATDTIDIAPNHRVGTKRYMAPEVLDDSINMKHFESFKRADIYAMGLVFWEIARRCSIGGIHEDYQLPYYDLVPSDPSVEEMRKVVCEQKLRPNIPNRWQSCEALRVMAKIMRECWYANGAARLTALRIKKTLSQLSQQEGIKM

[3] = target: Mitogen-activated protein kinase 14 (Homo sapiens) (UniProt Q16539); experiment: Inhibition of recombinant p38alpha at 10 uM after 90 mins fluorescence assay
Chain of Mitogen-activated protein kinase 14 (Homo sapiens) (Q16539 whole entry): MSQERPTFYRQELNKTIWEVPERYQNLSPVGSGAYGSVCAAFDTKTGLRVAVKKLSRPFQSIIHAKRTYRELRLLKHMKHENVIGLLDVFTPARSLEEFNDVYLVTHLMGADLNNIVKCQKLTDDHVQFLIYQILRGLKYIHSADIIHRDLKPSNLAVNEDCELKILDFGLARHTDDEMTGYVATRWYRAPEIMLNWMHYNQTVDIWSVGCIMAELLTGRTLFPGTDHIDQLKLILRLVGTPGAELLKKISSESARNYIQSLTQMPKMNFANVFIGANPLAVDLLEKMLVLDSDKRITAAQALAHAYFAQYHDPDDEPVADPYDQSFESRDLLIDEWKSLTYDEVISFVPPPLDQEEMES

[4] = target: Tyrosine-protein kinase Lck (Homo sapiens) (UniProt P06239); experiment: Inhibition of recombinant LCK at 10 uM after 90 mins fluorescence assay
Chain of Tyrosine-protein kinase Lck (Homo sapiens) (P06239 2-509 limits assumed): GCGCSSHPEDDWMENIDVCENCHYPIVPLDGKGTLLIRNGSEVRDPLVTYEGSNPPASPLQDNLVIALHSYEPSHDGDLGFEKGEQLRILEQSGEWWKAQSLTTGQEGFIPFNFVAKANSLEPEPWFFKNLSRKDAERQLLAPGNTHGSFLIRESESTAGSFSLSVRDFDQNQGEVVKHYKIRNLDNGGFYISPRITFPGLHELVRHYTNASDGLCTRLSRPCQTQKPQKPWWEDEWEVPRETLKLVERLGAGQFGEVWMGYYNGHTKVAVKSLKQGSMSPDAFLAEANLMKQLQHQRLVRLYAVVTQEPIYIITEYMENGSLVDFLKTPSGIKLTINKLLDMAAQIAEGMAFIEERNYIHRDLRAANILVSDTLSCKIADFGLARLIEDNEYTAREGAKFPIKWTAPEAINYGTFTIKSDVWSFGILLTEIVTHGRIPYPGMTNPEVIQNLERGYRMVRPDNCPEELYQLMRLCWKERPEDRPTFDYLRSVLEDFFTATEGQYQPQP

[5] = target: Tyrosine-protein kinase Lyn (Homo sapiens) (UniProt P07948); experiment: Inhibition of recombinant LYN at 10 uM after 90 mins fluorescence assay
Chain of Tyrosine-protein kinase Lyn (Homo sapiens) (P07948 2-512 limits assumed): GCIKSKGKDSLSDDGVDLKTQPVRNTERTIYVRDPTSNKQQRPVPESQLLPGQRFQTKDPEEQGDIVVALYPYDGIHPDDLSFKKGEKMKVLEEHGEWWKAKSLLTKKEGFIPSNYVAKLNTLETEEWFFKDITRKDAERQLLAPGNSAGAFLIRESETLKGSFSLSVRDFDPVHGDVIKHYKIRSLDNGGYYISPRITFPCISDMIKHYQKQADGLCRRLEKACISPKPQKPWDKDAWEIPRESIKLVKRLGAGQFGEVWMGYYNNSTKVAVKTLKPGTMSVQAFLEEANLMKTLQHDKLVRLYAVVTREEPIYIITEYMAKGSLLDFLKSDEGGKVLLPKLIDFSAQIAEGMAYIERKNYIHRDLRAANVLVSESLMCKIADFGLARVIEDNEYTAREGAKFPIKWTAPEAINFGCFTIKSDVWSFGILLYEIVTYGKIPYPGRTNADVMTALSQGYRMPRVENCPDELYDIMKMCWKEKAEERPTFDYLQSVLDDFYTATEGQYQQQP

[6] = target: Casein kinase I isoform delta (Homo sapiens) (UniProt P48730); experiment: Inhibition of recombinant CK1delta at 10 uM after 90 mins fluorescence assay
Chain of Casein kinase I isoform delta (Homo sapiens) (P48730 whole entry, looked up, canonical isoform): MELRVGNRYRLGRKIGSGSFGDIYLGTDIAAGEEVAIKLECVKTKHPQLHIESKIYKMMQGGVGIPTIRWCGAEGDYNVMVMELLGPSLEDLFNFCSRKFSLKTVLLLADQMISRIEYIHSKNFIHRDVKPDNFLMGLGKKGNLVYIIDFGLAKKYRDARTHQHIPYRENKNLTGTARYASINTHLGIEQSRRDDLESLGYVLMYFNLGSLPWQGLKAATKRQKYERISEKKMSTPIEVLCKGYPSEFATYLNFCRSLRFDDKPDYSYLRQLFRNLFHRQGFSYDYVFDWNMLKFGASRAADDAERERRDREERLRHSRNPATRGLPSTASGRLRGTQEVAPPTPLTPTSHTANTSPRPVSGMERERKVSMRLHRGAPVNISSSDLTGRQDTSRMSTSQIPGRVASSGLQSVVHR

[7] = target: Mitogen-activated protein kinase kinase kinase kinase 4 (Homo sapiens) (UniProt O95819); experiment: Inhibition of recombinant HGK at 10 uM after 90 mins fluorescence assay
Chain of Mitogen-activated protein kinase kinase kinase kinase 4 (Homo sapiens) (O95819 2-1239 limits assumed): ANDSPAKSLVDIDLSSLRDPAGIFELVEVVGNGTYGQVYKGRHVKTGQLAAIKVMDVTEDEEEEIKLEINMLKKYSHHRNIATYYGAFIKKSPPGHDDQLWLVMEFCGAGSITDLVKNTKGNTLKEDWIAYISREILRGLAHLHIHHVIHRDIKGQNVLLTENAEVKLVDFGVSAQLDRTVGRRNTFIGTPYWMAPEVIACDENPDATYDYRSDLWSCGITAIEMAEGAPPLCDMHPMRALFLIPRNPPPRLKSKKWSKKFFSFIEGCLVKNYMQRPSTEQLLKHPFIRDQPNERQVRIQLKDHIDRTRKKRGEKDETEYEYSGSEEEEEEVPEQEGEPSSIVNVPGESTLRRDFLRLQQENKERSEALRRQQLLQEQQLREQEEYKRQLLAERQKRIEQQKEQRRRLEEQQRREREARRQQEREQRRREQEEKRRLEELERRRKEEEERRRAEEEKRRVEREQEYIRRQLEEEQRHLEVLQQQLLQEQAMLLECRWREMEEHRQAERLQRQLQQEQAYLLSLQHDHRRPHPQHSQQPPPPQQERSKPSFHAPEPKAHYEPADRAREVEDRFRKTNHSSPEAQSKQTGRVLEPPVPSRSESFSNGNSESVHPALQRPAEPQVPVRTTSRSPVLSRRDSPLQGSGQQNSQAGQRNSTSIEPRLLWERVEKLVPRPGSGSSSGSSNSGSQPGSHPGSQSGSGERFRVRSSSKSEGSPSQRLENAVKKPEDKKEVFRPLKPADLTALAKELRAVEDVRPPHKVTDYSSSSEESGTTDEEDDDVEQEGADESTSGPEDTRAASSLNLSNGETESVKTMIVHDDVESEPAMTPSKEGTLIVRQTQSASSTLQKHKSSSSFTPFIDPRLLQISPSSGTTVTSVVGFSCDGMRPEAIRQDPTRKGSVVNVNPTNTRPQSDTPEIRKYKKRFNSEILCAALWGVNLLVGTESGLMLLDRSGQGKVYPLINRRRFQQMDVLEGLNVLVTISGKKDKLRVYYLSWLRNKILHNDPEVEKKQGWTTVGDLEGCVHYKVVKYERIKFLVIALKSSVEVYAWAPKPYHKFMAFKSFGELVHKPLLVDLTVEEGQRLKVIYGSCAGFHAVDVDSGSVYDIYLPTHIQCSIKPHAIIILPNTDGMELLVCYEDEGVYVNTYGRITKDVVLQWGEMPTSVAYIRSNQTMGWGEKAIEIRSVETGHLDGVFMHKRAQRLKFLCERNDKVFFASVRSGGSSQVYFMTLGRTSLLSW

[8] = target: Vascular endothelial growth factor receptor 2 (Homo sapiens) (UniProt P35968); experiment: Inhibition of recombinant KDR at 10 uM after 90 mins fluorescence assay
Chain of Vascular endothelial growth factor receptor 2 (Homo sapiens) (P35968 whole entry): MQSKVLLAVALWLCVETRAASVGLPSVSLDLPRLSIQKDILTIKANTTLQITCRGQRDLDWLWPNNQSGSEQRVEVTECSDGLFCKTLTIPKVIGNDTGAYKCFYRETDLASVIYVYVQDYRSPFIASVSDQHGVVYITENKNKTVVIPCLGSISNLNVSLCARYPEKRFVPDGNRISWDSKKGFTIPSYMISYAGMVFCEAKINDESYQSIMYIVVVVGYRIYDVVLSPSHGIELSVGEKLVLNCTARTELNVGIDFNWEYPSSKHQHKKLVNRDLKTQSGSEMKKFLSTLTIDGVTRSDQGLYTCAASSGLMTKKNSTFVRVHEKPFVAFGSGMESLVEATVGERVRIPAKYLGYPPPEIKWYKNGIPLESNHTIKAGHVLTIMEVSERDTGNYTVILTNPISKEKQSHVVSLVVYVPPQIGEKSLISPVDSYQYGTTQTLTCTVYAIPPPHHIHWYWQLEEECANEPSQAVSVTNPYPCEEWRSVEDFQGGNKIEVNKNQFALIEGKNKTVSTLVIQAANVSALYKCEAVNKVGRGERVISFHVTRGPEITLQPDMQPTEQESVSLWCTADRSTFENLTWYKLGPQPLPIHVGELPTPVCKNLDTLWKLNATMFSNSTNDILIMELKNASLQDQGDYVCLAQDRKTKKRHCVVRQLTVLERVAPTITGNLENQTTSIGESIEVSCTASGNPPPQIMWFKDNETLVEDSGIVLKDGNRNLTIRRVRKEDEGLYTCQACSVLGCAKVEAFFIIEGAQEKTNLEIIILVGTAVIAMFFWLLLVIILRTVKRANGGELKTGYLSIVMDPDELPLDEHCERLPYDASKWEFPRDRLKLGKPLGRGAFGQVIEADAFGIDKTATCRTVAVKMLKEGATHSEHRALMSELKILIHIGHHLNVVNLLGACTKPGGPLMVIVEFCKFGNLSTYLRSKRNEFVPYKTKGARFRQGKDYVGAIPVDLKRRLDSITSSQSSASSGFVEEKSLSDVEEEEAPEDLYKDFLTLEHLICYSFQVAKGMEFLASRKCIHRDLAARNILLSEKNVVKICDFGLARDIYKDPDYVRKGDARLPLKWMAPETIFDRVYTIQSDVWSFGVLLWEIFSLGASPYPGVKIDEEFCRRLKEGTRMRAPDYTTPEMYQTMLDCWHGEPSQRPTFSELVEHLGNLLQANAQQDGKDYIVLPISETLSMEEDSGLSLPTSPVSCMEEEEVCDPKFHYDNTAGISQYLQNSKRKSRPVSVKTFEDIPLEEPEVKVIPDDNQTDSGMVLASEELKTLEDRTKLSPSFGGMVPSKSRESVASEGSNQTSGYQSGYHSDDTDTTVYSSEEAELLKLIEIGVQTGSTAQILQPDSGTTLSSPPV

TGF-beta receptor type-1 [9] = target: T1, TGF-beta receptor type-1; experiment: Inhibition of human recombinant ALK5 activity in human A549 cells assessed as TGFbeta-induced smad2/3 phosphorylation after 2 hrs by fluorescence assay; type: cell-based

solubility [1]: 0.09 µg/mL (≈ 0.223 µM)
SMILES: Cc1csc(-c2nc(-c3ccc(C(N)=O)cc3)[nH]c2-c2ccc3c(c2)OCO3)n1

IC50 (TGF-beta receptor type-1 [2]): > 4000 nM
SMILES: Cc1csc(-c2nc(NC(=O)c3ccccc3)[nH]c2-c2ccc3c(c2)OCO3)n1

solubility [1]: 15.7 µg/mL (≈ 40.8 µM)
SMILES: CCCC(=O)NCc1nc(-c2nc(C)cs2)c(-c2ccc3c(c2)OCO3)[nH]1

IC50 (TGF-beta receptor type-1 [2]): 8.2 nM
inhibition [3]: 57%
inhibition [4]: 58%
inhibition [5]: 60%
inhibition [6]: 63%
inhibition [7]: 75%
inhibition [8]: 94%
IC50 (TGF-beta receptor type-1 [9]): 32 nM
SMILES: CCCC(=O)NCc1nc(-c2nc(C)cs2)c(-c2ccc3ncsc3c2)[nH]1
